Test results reported in patent US11286273B2, “Rhamnolipid compounds and use thereof” (KOREA INSTITUTE OF OCEAN SCIENCE & TECHNOLOGY, priority 2019, dated 2022).

How the values were obtained:
Type in all cases: cell-based
ACHN = experiment: SRB growth inhibition, ACHN (kidney cancer); settings: Homo sapiens, 48 hours
Description: (§1) Human cancer cell lines HCT-15 (colon cancer), NUGC-3 (gastric cancer), NCI-H23 (liver cancer), ACHN (kidney cancer), PC-3 (prostate cancer) and MDA-MB-231 (breast cancer) were purchased from American Type Culture Collection (Manassas, Va.).
(§2) Cancer cell lines were cultured in RPMI 1640 supplemented with 10% fetal bovine serum (FBS) in a 5% CO2 humid atmosphere at 37° C. The evaluation of growth inhibitory ability against human cancer cell lines was performed via the Sulforhodamine B (SRB) method. The cells were dispensed into a 96-well plate at a density of 8,000 cells/well, and the next day, cells were treated with compounds 1 to 3 (0.1% DMSO as vehicle control), and treated with a positive control (adriamycin). After incubation for 48 hours, the culture fluid was fixed with 50% trichloroacetic acid ([…]) and stained with 0.4% sulforhodamine B contained in 1% acetic acid. The unbound dye was washed with 1% acetic acid, and the dye bound to the protein was extracted with 10 mM Tris base (pH 10.5) to determine the optical density. The absorbance at 540 nm was determined using a VersaMax microplate reader (Molecular Devices, LLC, Sunnyvale, Calif., USA). The GI50 values were calculated using GraphPad Prism 4.0 software (GraphPad Software, Inc., San Diego, Calif., USA) and shown in Table 3 below.

PC-3 = experiment: SRB growth inhibition, PC-3 (prostate cancer); settings: Homo sapiens, PC-3, 48 hours
Description: as §1, §2

NCI-H23 = experiment: SRB growth inhibition, NCI-H23 (liver cancer); settings: Homo sapiens, NCI-H23, 48 hours
Description: as §1, §2

Human cancer cell lines = experiment: SRB growth inhibition, panel of six human cancer cell lines (summary); settings: for GI50: Homo sapiens, range over the six cancer cell lines of Table 3
Description: as §1, §2

MDA-MB-231 = experiment: SRB growth inhibition, MDA-MB-231 (breast cancer); settings: Homo sapiens, MDA-MB-231, 48 hours
Description: as §1, §2

NUGC-3 = experiment: SRB growth inhibition, NUGC-3 (gastric cancer); settings: Homo sapiens, NUGC-3, 48 hours
Description: as §1, §2

HCT-15 = experiment: SRB growth inhibition, HCT-15 (colon cancer); settings: Homo sapiens, HCT-15, 48 hours
Description: as §1, §2

Row | GI50 (ACHN) [µM] | GI50 (PC-3) [µM] | GI50 (NCI-H23) [µM] | GI50 (Human cancer cell lines) [µM] | GI50 (MDA-MB-231) [µM] | GI50 (NUGC-3) [µM] | GI50 (HCT-15) [µM] | SMILES | activity against cancer cell lines (Human cancer cell lines; summary in words of Table 3)
1 | 34.2 | 37.8 | 27.5 | 13.7 to 41.5 | 30.6 | 30.6 | 41.5 | CC1OC(O[C@H](CCCCCCCCCCCCC[C@@H](C)O)CC(=O)O)C(O)C(O)C1O (stereo in doubt) [Compound 1, 17-hydroxy-3-(3,4,5-trihydroxy-6-methyltetrahydro-2H-pyran-2-yloxy)octadecanoic acid] | –
2 | 14.1 | 18.2 | 13.7 | 13.7 to 41.5 | 40.4 | 19.3 | 16.7 | CC(=O)CCCCCCCCCCCCC[C@H](CC(=O)O)OC1OC(C)C(O)C(O)C1O (stereo in doubt) [Compound 2, 17-oxo-3-(3,4,5-trihydroxy-6-methyltetrahydro-2H-pyran-2-yloxy)octadecanoic acid] | particularly excellent activity
3 | 1.3 | 1.4 | 1.4 | – | 1.5 | 1.5 | 1.4 | COc1cccc2c1C(=O)c1c(O)c3c(c(O)c1C2=O)C[C@@](O)(C(=O)CO)C[C@@H]3O[C@H]1C[C@H](N)[C@H](O)[C@H](C)O1 [ADR, adriamycin, reference compound] | –
4 | 29.1 | 33.3 | 36.9 | 13.7 to 41.5 | 25.5 | 32 | 26.9 | CC1OC(OC2C(O[C@H](CCCCCCCCCCCCC[C@@H](C)O)CC(=O)O)OC(C)C(O)C2O)C(O)C(O)C1O (stereo partly shown) [Compound 3, 3-(4,5-dihydroxy-6-methyl-3-(3,4,5-trihydroxy-6-methyltetrahydro-2H-pyran-)2-yloxy)tetrahydro-(2H-pyran-2-yloxy)-17-hydroxyoctadecanoic acid] | –
